Assays:
[1] = Antiproliferative activity against human MGC803 cells assessed as cell growth inhibition after 48 hrs by MTT assay; format: functional, cell-based; settings: MGC-803, 48 h
Protein smoothened = Protein smoothened (Homo sapiens, UniProt Q99835); assay: Displacement of boron-dipyrromethene-cyclopamine from human smoothened receptor expressed in HEK293 cells incubated for 4 hrs by hSMO-BC binding assay; format: cell-based
[2] = Antiproliferative activity against human […] cells assessed as cell growth inhibition after 48 hrs by MTT assay; format: functional, cell-based
Sonic hedgehog protein = Sonic hedgehog protein (Mus musculus, UniProt Q62226); assay: Inhibition of hedgehog signalling in mouse NIH3T3-Gli-luc cells after 48 hrs by dual luciferase reporter assay; format: cell-based
Chain of Sonic hedgehog protein (Q62226 25-198 limits assumed): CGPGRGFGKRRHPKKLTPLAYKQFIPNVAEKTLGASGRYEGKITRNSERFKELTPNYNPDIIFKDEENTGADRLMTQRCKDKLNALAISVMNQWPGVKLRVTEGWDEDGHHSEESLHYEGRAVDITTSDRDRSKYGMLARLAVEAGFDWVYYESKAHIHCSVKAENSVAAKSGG

[3] = Antiproliferative activity against human SW620 cells assessed as cell growth inhibition after 48 hrs by MTT assay; format: functional, cell-based; settings: SW-620, 48 h
HT-29 = assay: Antiproliferative activity against human HT-29 cells assessed as cell growth inhibition after 48 hrs by MTT assay; format: functional, cell-based; settings: HT-29, 48 h

Chain of Protein smoothened (Q99835 whole entry): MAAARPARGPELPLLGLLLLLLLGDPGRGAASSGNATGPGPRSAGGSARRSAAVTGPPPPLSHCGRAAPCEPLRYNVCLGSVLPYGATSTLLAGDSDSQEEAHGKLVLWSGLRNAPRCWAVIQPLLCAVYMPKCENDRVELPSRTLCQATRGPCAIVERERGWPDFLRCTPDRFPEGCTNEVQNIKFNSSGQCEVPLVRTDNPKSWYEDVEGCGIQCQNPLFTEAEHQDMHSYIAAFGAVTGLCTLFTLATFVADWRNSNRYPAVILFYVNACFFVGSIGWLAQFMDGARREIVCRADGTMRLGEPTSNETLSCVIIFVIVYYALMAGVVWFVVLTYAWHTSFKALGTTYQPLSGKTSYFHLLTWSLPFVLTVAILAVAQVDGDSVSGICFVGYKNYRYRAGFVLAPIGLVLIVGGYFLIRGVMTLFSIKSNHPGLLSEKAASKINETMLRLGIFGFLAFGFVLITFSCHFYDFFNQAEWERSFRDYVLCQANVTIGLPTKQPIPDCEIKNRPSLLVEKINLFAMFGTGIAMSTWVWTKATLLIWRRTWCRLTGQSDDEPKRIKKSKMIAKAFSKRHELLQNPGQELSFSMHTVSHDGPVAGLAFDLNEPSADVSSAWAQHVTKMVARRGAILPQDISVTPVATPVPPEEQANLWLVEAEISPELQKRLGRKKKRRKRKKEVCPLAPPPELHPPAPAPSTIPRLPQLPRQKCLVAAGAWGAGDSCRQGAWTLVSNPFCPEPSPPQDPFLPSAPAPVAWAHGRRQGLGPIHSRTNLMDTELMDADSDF

| SMILES | IC50 (Protein smoothened) [µM] | IC50 (Sonic hedgehog protein) [µM] | IC50 (HT-29) [µM] | IC50 [1] [µM] | IC50 [2] [µM] | IC50 [3] [µM] |
| --- | --- | --- | --- | --- | --- | --- |
| Cc1ccc(NC(=O)NC(=O)c2ccc(OCc3cccc(F)c3)cc2)cc1-c1nc2ccccc2[nH]1 |  |  | 38.2 | 44.8 | 53 | 39.6 |
| Cc1ccc(NC(=O)NC(=O)c2ccc(OCc3ccccc3)cc2)cc1-c1nc2ccccc2[nH]1 |  |  | 16.4 | 39.4 | 35.1 | 30.1 |
| Cc1ccc(NC(=S)NC(=O)c2ccc(OCc3ccc(C(F)(F)F)cc3)cc2)cc1-c1nc2ccccc2[nH]1 |  |  | 17.6 | 6.5 | 10.2 | 72.4 |
| Cc1ccc(COc2ccc(C(=O)NC(=S)Nc3ccc(C)c(-c4nc5ccccc5[nH]4)c3)cc2)cc1 |  |  | 14.2 | 4.98 | 11.3 | 60.9 |
| Cc1ccc(NC(=S)NC(=O)c2ccc(OCc3ccccc3Cl)cc2)cc1-c1nc2ccccc2[nH]1 |  |  | 23.7 | 45 | 51.4 | 57.1 |
| Cc1ccc(NC(=S)NC(=O)c2ccc(OCc3cccc(Cl)c3)cc2)cc1-c1nc2ccccc2[nH]1 |  |  | 35.3 | 51.3 | 43.3 | > 100 |
| Cc1ccc(NC(=O)NC(=O)c2ccc(OCc3ccccc3Cl)cc2)cc1-c1nc2ccccc2[nH]1 |  |  | 9.01 | 19.5 | 21.5 | 35.7 |
| Cc1ccc(NC(=O)NC(=O)c2ccc(OCc3cccc(Cl)c3)cc2)cc1-c1nc2ccccc2[nH]1 |  |  | 15.4 | 20.8 | 28 | 16 |
| Cc1ccc(NC(=S)NC(=O)c2ccc(OCc3ccc(Cl)cc3Cl)cc2)cc1-c1nc2ccccc2[nH]1 |  |  | 11.6 | 3.45 | 5.3 | 57.2 |
| Cc1ccc(NC(=S)NC(=O)c2ccc(OCc3cccc(Cl)c3Cl)cc2)cc1-c1nc2ccccc2[nH]1 |  |  | 63.7 | > 100 | > 100 | > 100 |
| Cc1ccc(NC(=S)NC(=O)c2ccc(OCc3cccc(C(F)(F)F)c3)cc2)cc1-c1nc2ccccc2[nH]1 |  |  | 8.2 | 5.21 | 6.05 | 15.4 |
| Cc1ccc(NC(=S)NC(=O)c2ccc(OCc3ccccc3)cc2)cc1-c1nc2ccccc2[nH]1 |  |  | 28.8 | 60.7 | 57.8 | 67.1 |
| Cc1ccc(NC(=O)NC(=O)c2ccc(OCc3cccc(Cl)c3Cl)cc2)cc1-c1nc2ccccc2[nH]1 |  |  | 48.5 | > 100 | 87 | 42.1 |
| O=C(NC(=S)Nc1ccc(Cl)c(-c2nc3ccccc3[nH]2)c1)c1ccc(OCc2ccc(C(F)(F)F)cc2)cc1 |  |  | 12.9 | 5.33 | 7.83 | 63.9 |
| Cc1ccc(NC(=S)NC(=O)c2ccc(OCc3cccc(F)c3)cc2)cc1-c1nc2ccccc2[nH]1 |  |  | 55.3 | > 100 | 86.8 | > 100 |

Molecules with a lower IC50 (HT-29), results first:

| IC50 (Protein smoothened) [µM] | IC50 (Sonic hedgehog protein) [µM] | IC50 (HT-29) [µM] | SMILES | IC50 [1] [µM] | IC50 [2] [µM] | IC50 [3] [µM] |
| --- | --- | --- | --- | --- | --- | --- |
| 0.281 | 0.65 | 6.61 | COc1cc(C(=O)NC(=S)Nc2cccc(NC(=O)c3ccccc3)c2)cc(OC)c1OC | 8.62 | 13.8 | 21.2 |
|  |  | 0.76 | Cc1ccc(NC(=O)NC(=O)c2ccc(OCc3ccccc3F)cc2)cc1-c1nc2ccccc2[nH]1 | 2.52 | 1.83 | 4.11 |
|  |  | 7.83 | Cc1ccc(NC(=O)NC(=O)c2ccc(OCc3ccc(C(F)(F)F)cc3)cc2)cc1-c1nc2ccccc2[nH]1 | 14.9 | 16.8 | 15.3 |
|  |  | 5.11 | Cc1ccc(COc2ccc(C(=O)NC(=O)Nc3ccc(C)c(-c4nc5ccccc5[nH]4)c3)cc2)cc1 | 4.25 | 6.36 | 26 |
|  | 0.158 | 1.87 | Cc1ccc(NC(=S)NC(=O)c2ccc(OCc3ccccc3F)cc2)cc1-c1nc2ccccc2[nH]1 | 3.07 | 2.42 | 6.44 |
| 0.042 | 0.032 | 0.73 | O=C(NC(=O)c1ccc(OCc2ccc(F)cc2)cc1)Nc1ccc(Cl)c(-c2nc3ccccc3[nH]2)c1 | 0.061 | 0.35 | 33.6 |
|  |  | 4.93 | O=C(NC(=S)Nc1ccc(Cl)c(-c2nc3ccccc3[nH]2)c1)c1ccc(OCc2ccc(Cl)c(Cl)c2)cc1 | 5.17 | 4.6 | 24.9 |
|  |  | 6.27 | Cc1ccc(NC(=S)NC(=O)c2ccc(OCc3ccc(Cl)c(Cl)c3)cc2)cc1-c1nc2ccccc2[nH]1 | 6.39 | 8.41 | 30.7 |
|  |  | 2.95 | Cc1ccc(COc2ccc(C(=O)NC(=O)Nc3ccc(Cl)c(-c4nc5ccccc5[nH]4)c3)cc2)cc1 | 3.86 | 3.19 | 23.2 |
|  |  | 2.62 | Cc1ccc(NC(=O)NC(=O)c2ccc(OCc3ccc(Cl)cc3Cl)cc2)cc1-c1nc2ccccc2[nH]1 | 2.74 | 2.55 | 12.2 |
|  |  | 1.91 | Cc1ccc(NC(=S)NC(=O)c2ccc(OCc3ccc(F)cc3)cc2)cc1-c1nc2ccccc2[nH]1 | 2.81 | 4.22 | 40.5 |
|  |  | 1.03 | Cc1ccc(NC(=O)NC(=O)c2ccc(OCc3ccc(Cl)c(Cl)c3)cc2)cc1-c1nc2ccccc2[nH]1 | 6.08 | 5.82 | 6.1 |
| 0.019 | 0.025 | 0.59 | O=C(NC(=O)c1ccc(OCc2ccccc2F)cc1)Nc1ccc(Cl)c(-c2nc3ccccc3[nH]2)c1 | 0.12 | 0.87 | 2.93 |
|  | 0.037 | 0.98 | Cc1ccc(NC(=O)NC(=O)c2ccc(OCc3ccc(F)cc3)cc2)cc1-c1nc2ccccc2[nH]1 | 0.16 | 0.24 | 35.1 |
|  |  | 3.52 | Cc1ccc(NC(=O)NC(=O)c2ccc(OCc3cccc(C(F)(F)F)c3)cc2)cc1-c1nc2ccccc2[nH]1 | 13.1 | 9.6 | 9.64 |
|  |  | 6.08 | O=C(NC(=S)Nc1ccc(Cl)c(-c2nc3ccccc3[nH]2)c1)c1ccc(OCc2ccc(Cl)cc2Cl)cc1 | 3.03 | 3.75 | 50.2 |
|  | 0.013 | 1.08 | CS(=O)(=O)c1ccc(C(=O)Nc2ccc(Cl)c(-c3ccccn3)c2)c(Cl)c1 [VISMODEGIB] | 2.39 | 2.88 | 10.9 |

From ChEMBL document CHEMBL3739278, “Synthesis and evaluation of novel N-3-benzimidazolephenylbisamide derivatives for antiproliferative and Hedgehog pathway inhibitory activity” (Medchemcomm, 2015)
